# Data taken from patent US20180200257A1, “METHODS FOR THE TREATMENT OF INFLAMMATORY DISORDERS” (Galapagos NV, priority 2015, published 2018).
# Tested on: subjects with moderately to severely active RA who have an inadequate response to methotrexate (MTX)
# Experiment: Study 1 (add-on to MTX) - Subject VAS mean changes (ACR patient assessment)
# Assay type: in vivo, human
# Experimental: The scale is 100 mm, the decrease in mm is shown. […] (dotted line), 100 mg q.d. (dashed line) or 200 mg q.d. (dark solid line). […] The results shown in the figures are calculated using Last-Observation-Carried-Forward (LOCF), which handles missing data by assigning the value recorded at the patient's last visit to all subsequent missed visits.
# Double-blind, placebo-controlled add on study in subjects with moderately to severely active RA who have an inadequate response to methotrexate (MTX) (oral or parenteral).
# 595 subjects randomized to one of 6 dose regimens of Compound 1 (dosed as [Compound 1:HCl:3H2O]) (3 dose levels administered either once or twice daily) or placebo on top of each subject's stable dose of MTX.
# Compound 1 (dosed as [Compound 1:HCl:3H2O]) is dosed for twelve weeks once daily (q.d.) (50 mg, 100 mg or 200 mg) or twice daily (b.i.d.) (25 mg, 50 mg or 100 mg); or placebo.
# At Week 12, the subjects on placebo who have not achieved 20% improvement in swollen joint count (SJC66) and tender joint count (TJC68) are re-randomized automatically to receive Compound 1 (dosed as a [Compound 1:HCl:3H2O]) either at 100 mg q.d. or 50 mg b.i.d. doses in a blinded fashion; subjects on 50 mg q.d. who have not achieved 20% improvement in SJC66 and TJC68 will be assigned to 100 mg q.d. and subjects on 25 mg b.i.d. that have not achieved a 20% improvement in SJC66 and TJC68 will be assigned to 50 mg b.i.d. Subjects who switch treatment at week 12 are handled as if they discontinued at week 12 for the purpose of statistical analysis, whereas subjects in the other groups will maintain their randomized treatment until Week 24.
# Firstly, the patient is asked to make a vertical mark on a 100 mm Visual Analog Scale (VAS) corresponding to their general health or global disease activity on a touch screen to measure the VAS value, which is used in the formula below.
# The American College of Rheumatology (ACR) composite score, which evaluates clinical improvement relative to an initial assessment, is a commonly accepted efficacy end point for clinical trials in patients with rheumatoid arthritis. The ACR score correspond to a percentage improvement in pre-set parameters, and therefore measures the evolution of the disease in a patient. For example, ACR20 denotes at least 20% improvement in tender and swollen joint counts and in three of the following end points: global assessment by the patient, global assessment by the doctor, C reactive protein (CRP), patient's pain Visual Analogue Scale and Health Assessment Questionnaire Score. The number of swollen joints, ESR and CRP correlate with radiographic progression of joint damage, whereas tender joint counts, as well as global assessments by doctors and patients, and patients' reports of pain, are sensitive to change in clinical outcomes. Physical function, as assessed by the Health Assessment Questionnaire Score, is a potent predictor of the risk of disability in rheumatoid arthritis (Felson and American College of Rheumatology Committee to Reevaluate Improvement Criteria, 2007; Felson et al., 1993).
smiles,measurement,setting,value
"O=C(Nc1nc2cccc(-c3ccc(CN4CCS(=O)(=O)CC4)cc3)n2n1)C1CC1 [Compound 1, cyclopropanecarboxylic acid {5-[4-(1,1-dioxo-thiomorpholin-4-ylmethyl)-phenyl]-[1,2,4]triazolo[1,5-a]pyridin-2-yl}-amide]",Subject VAS mean changes (ACR patient assessment),"50 mg q.d., week 0, LOCF, 24 weeks results",0.0
same,Subject VAS mean changes (ACR patient assessment),"50 mg q.d., week 2, LOCF, 24 weeks results",−15.5
same,Subject VAS mean changes (ACR patient assessment),"50 mg q.d., week 4, LOCF, 24 weeks results",−20.9
same,Subject VAS mean changes (ACR patient assessment),"50 mg q.d., week 8, LOCF, 24 weeks results",−26.4
same,Subject VAS mean changes (ACR patient assessment),"50 mg q.d., week 12, LOCF, 24 weeks results",−25.2
same,Subject VAS mean changes (ACR patient assessment),"50 mg q.d., week 16, LOCF, 24 weeks results",−27.7
same,Subject VAS mean changes (ACR patient assessment),"50 mg q.d., week 20, LOCF, 24 weeks results",−28.1
same,Subject VAS mean changes (ACR patient assessment),"50 mg q.d., week 24, LOCF, 24 weeks results",−29.4
same,Subject VAS mean changes (ACR patient assessment),"50 mg q.d., week 0, LOCF, 12 weeks results",0.0
same,Subject VAS mean changes (ACR patient assessment),"50 mg q.d., week 1, LOCF, 12 weeks results",−11.2
same,Subject VAS mean changes (ACR patient assessment),"50 mg q.d., week 2, LOCF, 12 weeks results",−15.5
same,Subject VAS mean changes (ACR patient assessment),"50 mg q.d., week 4, LOCF, 12 weeks results",−20.9
same,Subject VAS mean changes (ACR patient assessment),"50 mg q.d., week 8, LOCF, 12 weeks results",−26.4
same,Subject VAS mean changes (ACR patient assessment),"50 mg q.d., week 12, LOCF, 12 weeks results",−25.2
same,Subject VAS mean changes (ACR patient assessment),"100 mg q.d., week 0, LOCF, 24 weeks results",0.0
same,Subject VAS mean changes (ACR patient assessment),"100 mg q.d., week 2, LOCF, 24 weeks results",−20.9
same,Subject VAS mean changes (ACR patient assessment),"100 mg q.d., week 4, LOCF, 24 weeks results",−24.4
same,Subject VAS mean changes (ACR patient assessment),"100 mg q.d., week 8, LOCF, 24 weeks results",−29.8
same,Subject VAS mean changes (ACR patient assessment),"100 mg q.d., week 12, LOCF, 24 weeks results",−29.1
same,Subject VAS mean changes (ACR patient assessment),"100 mg q.d., week 16, LOCF, 24 weeks results",−31.7
same,Subject VAS mean changes (ACR patient assessment),"100 mg q.d., week 20, LOCF, 24 weeks results",−35.1
same,Subject VAS mean changes (ACR patient assessment),"100 mg q.d., week 24, LOCF, 24 weeks results",−34.4
same,Subject VAS mean changes (ACR patient assessment),"100 mg q.d., week 0, LOCF, 12 weeks results",0.0
same,Subject VAS mean changes (ACR patient assessment),"100 mg q.d., week 1, LOCF, 12 weeks results",−13.2
same,Subject VAS mean changes (ACR patient assessment),"100 mg q.d., week 2, LOCF, 12 weeks results",−20.8
same,Subject VAS mean changes (ACR patient assessment),"100 mg q.d., week 4, LOCF, 12 weeks results",−24.4
same,Subject VAS mean changes (ACR patient assessment),"100 mg q.d., week 8, LOCF, 12 weeks results",−29.8
same,Subject VAS mean changes (ACR patient assessment),"100 mg q.d., week 12, LOCF, 12 weeks results",−29.1
same,Subject VAS mean changes (ACR patient assessment),"200 mg q.d., week 0, LOCF, 24 weeks results",0.0
same,Subject VAS mean changes (ACR patient assessment),"200 mg q.d., week 2, LOCF, 24 weeks results",−21.8
same,Subject VAS mean changes (ACR patient assessment),"200 mg q.d., week 4, LOCF, 24 weeks results",−24.9
same,Subject VAS mean changes (ACR patient assessment),"200 mg q.d., week 8, LOCF, 24 weeks results",−29.6
same,Subject VAS mean changes (ACR patient assessment),"200 mg q.d., week 12, LOCF, 24 weeks results",−34.2
same,Subject VAS mean changes (ACR patient assessment),"200 mg q.d., week 16, LOCF, 24 weeks results",−32.9
same,Subject VAS mean changes (ACR patient assessment),"200 mg q.d., week 20, LOCF, 24 weeks results",−33.0
same,Subject VAS mean changes (ACR patient assessment),"200 mg q.d., week 24, LOCF, 24 weeks results",−34.9
same,Subject VAS mean changes (ACR patient assessment),"200 mg q.d., week 0, LOCF, 12 weeks results",0.0
same,Subject VAS mean changes (ACR patient assessment),"200 mg q.d., week 1, LOCF, 12 weeks results",−16.7
same,Subject VAS mean changes (ACR patient assessment),"200 mg q.d., week 2, LOCF, 12 weeks results",−21.8
same,Subject VAS mean changes (ACR patient assessment),"200 mg q.d., week 4, LOCF, 12 weeks results",−25.2
same,Subject VAS mean changes (ACR patient assessment),"200 mg q.d., week 8, LOCF, 12 weeks results",−29.6
same,Subject VAS mean changes (ACR patient assessment),"200 mg q.d., week 12, LOCF, 12 weeks results",−34.0
same,Subject VAS mean changes (ACR patient assessment),"2 × 25 mg b.i.d., week 0, LOCF, 12 weeks results",0.0
same,Subject VAS mean changes (ACR patient assessment),"2 × 25 mg b.i.d., week 0, LOCF, 24 weeks results",0.0
same,Subject VAS mean changes (ACR patient assessment),"2 × 25 mg b.i.d., week 1, LOCF, 12 weeks results",−8.2
same,Subject VAS mean changes (ACR patient assessment),"2 × 25 mg b.i.d., week 2, LOCF, 12 weeks results",−11.7
same,Subject VAS mean changes (ACR patient assessment),"2 × 25 mg b.i.d., week 2, LOCF, 24 weeks results",−11.7
same,Subject VAS mean changes (ACR patient assessment),"2 × 25 mg b.i.d., week 4, LOCF, 12 weeks results",−16.0
same,Subject VAS mean changes (ACR patient assessment),"2 × 25 mg b.i.d., week 4, LOCF, 24 weeks results",−16.0
same,Subject VAS mean changes (ACR patient assessment),"2 × 25 mg b.i.d., week 8, LOCF, 12 weeks results",−22.2
same,Subject VAS mean changes (ACR patient assessment),"2 × 25 mg b.i.d., week 8, LOCF, 24 weeks results",−22.2
same,Subject VAS mean changes (ACR patient assessment),"2 × 25 mg b.i.d., week 12, LOCF, 12 weeks results",−25.2
same,Subject VAS mean changes (ACR patient assessment),"2 × 25 mg b.i.d., week 12, LOCF, 24 weeks results",−25.2
same,Subject VAS mean changes (ACR patient assessment),"2 × 25 mg b.i.d., week 16, LOCF, 24 weeks results",−25.5
same,Subject VAS mean changes (ACR patient assessment),"2 × 25 mg b.i.d., week 20, LOCF, 24 weeks results",−25.6
same,Subject VAS mean changes (ACR patient assessment),"2 × 25 mg b.i.d., week 24, LOCF, 24 weeks results",−27.3
same,Subject VAS mean changes (ACR patient assessment),"2 × 50 mg b.i.d., week 0, LOCF, 12 weeks results",0.0
same,Subject VAS mean changes (ACR patient assessment),"2 × 50 mg b.i.d., week 1, LOCF, 12 weeks results",−8.8
same,Subject VAS mean changes (ACR patient assessment),"2 × 50 mg b.i.d., week 2, LOCF, 12 weeks results",−13.6
same,Subject VAS mean changes (ACR patient assessment),"2 × 50 mg b.i.d., week 2, LOCF, 24 weeks results",−13.8
same,Subject VAS mean changes (ACR patient assessment),"2 × 50 mg b.i.d., week 4, LOCF, 12 weeks results",−16.9
same,Subject VAS mean changes (ACR patient assessment),"2 × 50 mg b.i.d., week 4, LOCF, 24 weeks results",−16.9
same,Subject VAS mean changes (ACR patient assessment),"2 × 50 mg b.i.d., week 8, LOCF, 12 weeks results",−21.0
same,Subject VAS mean changes (ACR patient assessment),"2 × 50 mg b.i.d., week 8, LOCF, 24 weeks results",−21.0
same,Subject VAS mean changes (ACR patient assessment),"2 × 50 mg b.i.d., week 12, LOCF, 12 weeks results",−27.0
same,Subject VAS mean changes (ACR patient assessment),"2 × 50 mg b.i.d., week 12, LOCF, 24 weeks results",−27.0
same,Subject VAS mean changes (ACR patient assessment),"2 × 50 mg b.i.d., week 16, LOCF, 24 weeks results",−26.3
same,Subject VAS mean changes (ACR patient assessment),"2 × 50 mg b.i.d., week 20, LOCF, 24 weeks results",−29.7
same,Subject VAS mean changes (ACR patient assessment),"2 × 50 mg b.i.d., week 24, LOCF, 24 weeks results",−28.1
same,Subject VAS mean changes (ACR patient assessment),"2 × 100 mg b.i.d., week 0, LOCF, 12 weeks results",0.0
same,Subject VAS mean changes (ACR patient assessment),"2 × 100 mg b.i.d., week 1, LOCF, 12 weeks results",−20.0
same,Subject VAS mean changes (ACR patient assessment),"2 × 100 mg b.i.d., week 2, LOCF, 12 weeks results",−25.5
same,Subject VAS mean changes (ACR patient assessment),"2 × 100 mg b.i.d., week 2, LOCF, 24 weeks results",−25.5
same,Subject VAS mean changes (ACR patient assessment),"2 × 100 mg b.i.d., week 4, LOCF, 12 weeks results",−28.6
same,Subject VAS mean changes (ACR patient assessment),"2 × 100 mg b.i.d., week 4, LOCF, 24 weeks results",−28.2
same,Subject VAS mean changes (ACR patient assessment),"2 × 100 mg b.i.d., week 8, LOCF, 12 weeks results",−32.8
same,Subject VAS mean changes (ACR patient assessment),"2 × 100 mg b.i.d., week 8, LOCF, 24 weeks results",−33.0
same,Subject VAS mean changes (ACR patient assessment),"2 × 100 mg b.i.d., week 12, LOCF, 12 weeks results",−35.6
same,Subject VAS mean changes (ACR patient assessment),"2 × 100 mg b.i.d., week 12, LOCF, 24 weeks results",−35.6
same,Subject VAS mean changes (ACR patient assessment),"2 × 100 mg b.i.d., week 16, LOCF, 24 weeks results",−37.9
same,Subject VAS mean changes (ACR patient assessment),"2 × 100 mg b.i.d., week 20, LOCF, 24 weeks results",−39.1
same,Subject VAS mean changes (ACR patient assessment),"2 × 100 mg b.i.d., week 24, LOCF, 24 weeks results",−39.1
